Experimental data reported in patent US8138191B2, “Inhibitor compounds and cancer treatment methods” (Critical Outcome Technologies Inc., priority 2007, dated 2012).

What was measured:
[1] = system: PI3K activity in DMS114 cells; experiment: PI3-K activity (PIP3 detection, Echelon kit), DMS114; assay type: cell-based, human; details: DMS114, 250 nM COTI-2 alone, 20 minutes
Excerpt: As a negative control, an equivalent volume of DMSO was utilized. […] To measure PI3-K activity, a commercial kit was purchased from Echelon. Following the procedures recommended by the manufacturer, membrane lipids were extracted in several steps and the resulting PIP3 was immobilized to nitrocellulose and measured by its interaction with a PH-domain containing protein and HRP-conjugated antibody supplied with the kit. As an additional control in these experiments, the specific PI3-K inhibitor, LY294002 was used to inhibit PI3-K and thus stop PIP3 production.

[2] = system: SHP 77 cells; experiment: Proliferation with anti-cancer agents plus COTI-2, SHP 77; assay type: cell-based, human
[3] = system: normal human peripheral blood mononuclear cells (PBMCs); experiment: Flow cytometric analysis of cell death (Annexin V/PI), PBMCs; assay type: cell-based; details: PBMC, PBMCs from healthy male and female subjects
Method: All cell lines were grown and exposed to various concentrations of COTI-2 or vehicle only control and the percentage of dead or dying cells were determined 24 and 48 h post-exposure by Annexin V and propidium iodide.
Blood samples from 2 healthy human volunteers (person) were obtained in 5 ml Vacutainers® containing 100 USP sodium heparin (Becton Dickinson, Franklin Lake, N.J.) and rocked gently to mix, then kept at room temperature. Blood was diluted 1:1 with phosphate buffered saline (PBS) and layered over an equal volume of room temperature Histopaque-1083® (Sigma Diagnostics, St. Louis, Mo.) in a 15 ml conical bottom polyethylene (PET) centrifuge tube (Corning Corporation, Corning, N.Y.). This was centrifuged at 400×g for 30 minutes at 20° C. […]
Cells were plated in 25-cm^2 flasks and treated with COTI-2 (0-100 μM) added from a stock DMSO/DMEM solution such that DMSO concentrations never exceeded 0.5%. […] Resuspended cells (100 μl) were incubated in the dark with 10 μl propidium iodide (PI, 50 ng per ml; Sigma, St. Louis, Mo.) plus Annexin V-FITC (25 ng per ml, green fluorescence; BD Biosciences, Mississauga, Ontario). […] Samples were analyzed for combined Annexin V/PI staining (to assess dead plus apoptotic cells) using a Beckman Coulter EPCS XL-MCL flow cytometer (Beckman Coulter, Hileah, Fla.) and the data were analyzed with CellQuest software.

[4] = molecular target: T1, P-glycoprotein (Homo sapiens, UniProt P08183); experiment: P-glycoprotein inhibition (TC7, 3H-digoxin substrate); assay type: in vitro ADME
T1 construct: endogenous in cells; host or cells: TC7 cells
T1 sequence (P08183 whole entry): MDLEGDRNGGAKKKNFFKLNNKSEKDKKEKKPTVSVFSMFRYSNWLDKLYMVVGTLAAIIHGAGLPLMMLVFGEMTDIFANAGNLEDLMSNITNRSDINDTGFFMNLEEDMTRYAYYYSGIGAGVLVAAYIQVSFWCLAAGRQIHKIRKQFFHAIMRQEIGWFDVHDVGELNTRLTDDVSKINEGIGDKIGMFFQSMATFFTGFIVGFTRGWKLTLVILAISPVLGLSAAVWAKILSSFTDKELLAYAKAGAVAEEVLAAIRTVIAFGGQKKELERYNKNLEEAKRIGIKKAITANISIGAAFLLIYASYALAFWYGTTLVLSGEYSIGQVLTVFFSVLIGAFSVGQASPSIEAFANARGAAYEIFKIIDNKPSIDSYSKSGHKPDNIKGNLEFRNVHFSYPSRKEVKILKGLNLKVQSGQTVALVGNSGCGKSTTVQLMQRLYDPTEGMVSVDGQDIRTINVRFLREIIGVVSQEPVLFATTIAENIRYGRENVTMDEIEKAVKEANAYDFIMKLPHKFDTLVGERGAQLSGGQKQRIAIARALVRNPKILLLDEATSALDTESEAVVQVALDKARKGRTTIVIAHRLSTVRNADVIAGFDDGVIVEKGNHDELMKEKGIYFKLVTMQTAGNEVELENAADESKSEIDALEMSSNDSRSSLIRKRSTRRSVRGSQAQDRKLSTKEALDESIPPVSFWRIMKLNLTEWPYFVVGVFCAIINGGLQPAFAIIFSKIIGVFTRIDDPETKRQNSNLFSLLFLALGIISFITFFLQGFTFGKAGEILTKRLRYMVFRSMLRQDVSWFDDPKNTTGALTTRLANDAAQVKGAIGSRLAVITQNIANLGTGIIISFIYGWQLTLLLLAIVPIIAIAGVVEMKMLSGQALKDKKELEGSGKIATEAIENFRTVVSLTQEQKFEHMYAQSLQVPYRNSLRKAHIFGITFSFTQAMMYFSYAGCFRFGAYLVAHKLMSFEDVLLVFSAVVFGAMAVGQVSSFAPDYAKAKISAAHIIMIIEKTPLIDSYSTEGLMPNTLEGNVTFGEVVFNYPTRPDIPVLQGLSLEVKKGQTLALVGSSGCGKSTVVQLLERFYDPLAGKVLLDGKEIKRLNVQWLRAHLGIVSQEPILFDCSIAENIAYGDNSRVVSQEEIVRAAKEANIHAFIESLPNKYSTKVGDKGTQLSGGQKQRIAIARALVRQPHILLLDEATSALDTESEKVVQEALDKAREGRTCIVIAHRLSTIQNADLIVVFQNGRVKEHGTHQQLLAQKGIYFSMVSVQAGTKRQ

[5] = Metabolic Stability (liver microsomes, dog, Beagle); assay type: in vitro ADME; details: 1.0E−06 M, 60 min
Method: Metabolic stability was determined in human (mixed gender and pool of 50) monkey (male Cynomolgus, pool of 6 or more), dog male, beagle, pool of 4 or more) and rat (male Sprague-Dawley, pool of 100 or more) liver microsomes. […] Four reference substrates (1 μM) were tested simultaneously with COTI-2. […] Peak areas corresponding to COTI-2 were recorded by HPLC-MS/MS. Metabolic stability, expressed as percent of COTI-2 remaining, was calculated by comparing the peak area of COTI-2 at 60 min to time zero.

[6] = system: SHP77 cells; experiment: siRNA target knock-down with COTI-219, cell viability by trypan blue, SHP77; assay type: cell-based, human; details: SHP77, 500 nM, 48 h
Method: In brief, cells DMS114 and SHP77 cells were transfected with gene specific siRNA in the presence or absence of COTI-219 and cell viability determined after 24 to 48 h post-incubation using the trypan blue exclusion method.
Cell cultures were maintained under regular tissue culture conditions and passaged 1-2 times a week as recommended by ATCC. With the exception of the siRNA for Bim (Signal Silence Bim siRNA kit #6460 from Cell Signaling), all other siRNA reagents for gene knock-down experiments was obtained from Ambion (Silencer Negative Control #1 siRNA #AM4611, CDK2 Silencer Select #s204, HRAS Silencer Select #s807, Protein kinase C alpha Silencer Validated #301, MAPK3/Erk Silencer Pre-designed #214749, EGFR Silencer Select #s563, and ERBB2 Silencer Select #s611). […] The transfection method required optimization such that a knock-down of the target gene greater than ˜75% was achieved and confirmed by western blot analyses. […] Following an optimal knock-down level at >75%, 2×10^5 cells were incubated with 500 nM COTI-219 and number of viable cells was measured at 48 h.
Cell viability assays were performed 24 to 48 h following incubation with COTI-219 by the trypan blue exclusion method using a Beckman-Coulter Vi-CELL XR 2.03 automated cell counter. Routine laboratory methods were employed for the production of cellular lysates, protein quantitation, SDS-PAGE and western blotting. […]

Row | SMILES | increase in PI3K activity (PIP3 levels) [1] | reduction of proliferation as a single agent ([2]; SHP 77, 31 nM) [%] | reduction of proliferation as a single agent ([2]; SHP 77, 73 nM) [%] | IC50 [3] [µM] | nH ([4]; P-glycoprotein Inhibition, TC7, 3H-digoxin substrate) | IC50 ([4]; TC-7, radiolabelled digoxin, read-out: IC50, Pgp inhibition) [µM] | Mean Parent Remaining [5] [%] | target knock-downs suppressing the apoptotic/cell growth inhibitory effect of COTI-219 [6]
1 | S=C(N/N=C1/CCCc2cccnc21)N1CCN(c2ccccn2)CC1 [COTI-2] | approximately 25% | 25 | 25 | > 100 | 0.5 | 39 | 5 | –
2 | CN1CCN(C(=S)NN=C2c3ncccc3-c3cccnc32)CC1 [COTI-219] | – | – | – | – | – | – | – | not only Ras but Erbb2, Erk1, and PKC-α all suppressed
